Consider 1 substance from BindingDB's records for doi:10.1021/jm00076a015 (University of Pennsylvania, 1994).

Usually IC50 stands for the point on the concentration scale where inhibition reaches its midpoint. Low values mean inhibition by little substance, high ones a need for much substance.

This assay deals with T1, Ribonucleoside-diphosphate reductase large subunit (Mus musculus, UniProt P07742).
T1 sequence (P07742 whole entry): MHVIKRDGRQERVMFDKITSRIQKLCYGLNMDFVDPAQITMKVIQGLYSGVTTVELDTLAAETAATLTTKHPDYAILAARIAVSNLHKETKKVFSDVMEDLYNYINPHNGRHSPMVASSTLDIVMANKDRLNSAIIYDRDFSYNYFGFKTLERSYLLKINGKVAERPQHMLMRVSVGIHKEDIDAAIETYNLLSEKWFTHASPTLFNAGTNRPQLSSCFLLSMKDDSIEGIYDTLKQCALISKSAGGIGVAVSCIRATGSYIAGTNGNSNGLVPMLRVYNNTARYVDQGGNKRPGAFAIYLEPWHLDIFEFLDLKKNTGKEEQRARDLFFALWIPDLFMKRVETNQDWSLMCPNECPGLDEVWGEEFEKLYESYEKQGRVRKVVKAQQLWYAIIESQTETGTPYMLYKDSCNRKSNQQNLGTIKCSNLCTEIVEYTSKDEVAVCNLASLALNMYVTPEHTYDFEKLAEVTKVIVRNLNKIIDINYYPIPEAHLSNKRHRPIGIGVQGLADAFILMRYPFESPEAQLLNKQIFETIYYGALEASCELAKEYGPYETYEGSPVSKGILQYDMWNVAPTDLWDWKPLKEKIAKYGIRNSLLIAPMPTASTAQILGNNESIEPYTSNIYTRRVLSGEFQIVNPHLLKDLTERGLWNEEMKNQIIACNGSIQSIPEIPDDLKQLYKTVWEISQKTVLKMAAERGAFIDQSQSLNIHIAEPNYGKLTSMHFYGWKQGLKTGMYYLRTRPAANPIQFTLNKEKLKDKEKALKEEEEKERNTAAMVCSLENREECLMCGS
Description: ChEBML_195421.
Description: Inhibitory activity of compound against mammalian ribonucleotide reductase; Range is 40-42

Ac-AGAFTFNEDF-OH gave an IC50 of 41 µM.
